Experimental data from PMC8935241, “Ebselen enhances insulin sensitivity and decreases oxidative stress by inhibiting SHIP2 and protects from inflammation in diabetic mice” (International Journal of Biological Sciences, 2022).

What was measured:
[1] = target: T1, SHIP1 (Src homology 2 domain-containing inositol-5-phosphatase 1) (Homo sapiens, UniProt Q92835); experiment: malachite green phosphate assay with PI([…])P3 diC8 on recombinant phosphatase domain; assay type: biochemical
T1 construct: gene INPP5D; Recombinant His-tagged human SHIP1 phosphatase domain
T1 sequence (Q92835 399-715 limits assumed): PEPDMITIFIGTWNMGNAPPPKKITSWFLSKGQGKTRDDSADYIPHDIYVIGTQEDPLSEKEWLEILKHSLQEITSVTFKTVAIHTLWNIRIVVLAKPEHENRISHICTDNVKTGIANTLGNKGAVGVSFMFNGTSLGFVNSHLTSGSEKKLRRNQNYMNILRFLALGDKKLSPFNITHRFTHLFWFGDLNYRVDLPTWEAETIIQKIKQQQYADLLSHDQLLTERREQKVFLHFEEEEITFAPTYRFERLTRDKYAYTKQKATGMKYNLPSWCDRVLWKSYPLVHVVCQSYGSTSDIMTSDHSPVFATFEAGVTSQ

[2] = target: T2, SHIP2 (Src homology 2 domain-containing inositol-5-phosphatase 2) (Homo sapiens, UniProt O15357); experiment: as above; assay type: biochemical
T2 construct: gene INPPL1; Recombinant His-tagged human SHIP2 phosphatase domain
T2 sequence (O15357 419-732 limits assumed): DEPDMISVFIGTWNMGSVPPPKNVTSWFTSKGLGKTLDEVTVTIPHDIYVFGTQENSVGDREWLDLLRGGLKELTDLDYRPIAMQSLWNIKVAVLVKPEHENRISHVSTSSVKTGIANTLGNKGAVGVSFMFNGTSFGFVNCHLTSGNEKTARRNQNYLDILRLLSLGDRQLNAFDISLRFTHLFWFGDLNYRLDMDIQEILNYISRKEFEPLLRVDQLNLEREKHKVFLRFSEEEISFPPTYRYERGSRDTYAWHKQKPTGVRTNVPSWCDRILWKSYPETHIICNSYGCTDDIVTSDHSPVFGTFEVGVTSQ

- IC50 [1]: 1810 nM
- IC50 [2]: 480 nM
SMILES: O=c1c2ccccc2[se]n1-c1ccccc1 [ebselen]
